# Reference: article PMC3020970, “K70Q Adds High-Level Tenofovir Resistance to “Q151M Complex” HIV Reverse Transcriptase through the Enhanced Discrimination Mechanism” (PLoS ONE, 2011)
# Where a name gives a salt, the structure may show the parent alone.
# Assays:
# Format in all cases: cell-based
# [1] = test system: HIV-1 clinical isolate 2 (Q151Mc + K70Q); experiment: Single-cycle drug susceptibility assay (MAGIC-5 cells), clinical isolate 2; conditions: Human immunodeficiency virus 1; clinical isolate 2, MAGIC-5 cells
# Method: (§1) HIV was isolated from fresh plasma immediately after collection of clinical samples from study participants at the outpatient clinic of the AIDS Clinical Center (ACC), International Medical Center of Japan. The Institutional Review Board approved this study (IMCJ-H13-80) and a written consent was obtained from all participants.
# (§2) Susceptibilities to various RT inhibitors were determined using the MAGIC-5 cells which are HeLa cells stably transfected with a β-galactosidase gene under the control of an HIV long terminal repeat promoter, and with vectors that express the CD4 receptor and the CCR5 co-receptor under the control of the CMV promoter as described previously. Briefly, MAGIC-5 cells were infected with diluted virus stock (100 blue forming units) in the presence of increasing concentrations of RT inhibitors, cultured for 48 h, fixed, and stained with X-Gal (5-bromo-4-chloro-3-indolyl-β-D-galacto-pyranoside). The stained cells were counted under a light microscope.
# [2] = test system: HIV-1 clinical isolate 1 (Q151Mc-containing); experiment: Single-cycle drug susceptibility assay (MAGIC-5 cells), clinical isolate 1; conditions: Human immunodeficiency virus 1; clinical isolate 1, MAGIC-5 cells
# Method: as §1, §2
# HIV-1 WT = experiment: Single-cycle drug susceptibility assay (MAGIC-5 cells), recombinant WT clone; conditions: Human immunodeficiency virus 1, Table S2
# Method: (§3) The NL4-3-based molecular clone was constructed by replacing the pol-coding region with the HIV-1 BH10 strain. […] Each molecular clone was transfected into COS-7 cells. Cells were grown for 48 h, and culture supernatants were harvested and stored at −80°C until use.
# as §2
# HIV-1 K70G = experiment: Single-cycle drug susceptibility assay (MAGIC-5 cells); conditions: for EC50: Human immunodeficiency virus 1, MAGIC-5, K70G; for Fold increase in EC50 compared to HIV-1 WT: K70G vs WT
# Method: as §3, §2
# HIV-1 Q151Mc/K70Q = experiment: as above; conditions: for EC50: Human immunodeficiency virus 1, MAGIC-5, Q151Mc/K70Q
# Method: as §3, §2
# HIV-1 Q151Mc/K70E = experiment: as above; conditions: for EC50: Human immunodeficiency virus 1, MAGIC-5, Q151Mc/K70E; for Fold increase in EC50 compared to HIV-1 Q151Mc: Q151Mc/K70E vs Q151Mc
# Method: as §3, §2
# HIV-1 Q151Mc/K70T = experiment: as above; conditions: for EC50: Human immunodeficiency virus 1, MAGIC-5, Q151Mc/K70T; for Fold increase in EC50 compared to HIV-1 Q151Mc: Q151Mc/K70T vs Q151Mc
# Method: as §3, §2
# HIV-1 K70Q = experiment: as above; conditions: Human immunodeficiency virus 1, MAGIC-5; K70Q
# Method: as §3, §2
# HIV-1 K70T = experiment: as above; conditions: for EC50: Human immunodeficiency virus 1, MAGIC-5, K70T; for Fold increase in EC50 compared to HIV-1 WT: K70T vs WT
# Method: as §3, §2
# HIV-1 Q151Mc = experiment: as above; conditions: Human immunodeficiency virus 1, MAGIC-5
# Method: as §3, §2
# HIV-1 K70R = experiment: as above; conditions: for EC50: Human immunodeficiency virus 1, MAGIC-5, K70R; for Fold increase in EC50 compared to HIV-1 WT: K70R vs WT
# Method: as §3, §2
# HIV-1 K70N = experiment: as above; conditions: for EC50: Human immunodeficiency virus 1, MAGIC-5, K70N; for Fold increase in EC50 compared to HIV-1 WT: K70N vs WT
# Method: as §3, §2
# HIV-1 Q151Mc/K70R = experiment: as above; conditions: for EC50: Human immunodeficiency virus 1, MAGIC-5, Q151Mc/K70R; for Fold increase in EC50 compared to HIV-1 Q151Mc: Q151Mc/K70R vs Q151Mc
# Method: as §3, §2
# HIV-1 K70E = experiment: as above; conditions: for EC50: Human immunodeficiency virus 1, MAGIC-5, K70E; for Fold increase in EC50 compared to HIV-1 WT: K70E vs WT
# Method: as §3, §2
# HIV-1 Q151Mc/K70G = experiment: as above; conditions: for EC50: Human immunodeficiency virus 1, MAGIC-5, Q151Mc/K70G; for Fold increase in EC50 compared to HIV-1 Q151Mc: Q151Mc/K70G vs Q151Mc
# Method: as §3, §2
# HIV-1 Q151Mc/K70N = experiment: as above; conditions: for EC50: Human immunodeficiency virus 1, MAGIC-5, Q151Mc/K70N; for Fold increase in EC50 compared to HIV-1 Q151Mc: Q151Mc/K70N vs Q151Mc
# Method: as §3, §2
# HIV-1 NL4-3 strain (WT) = experiment: microbe, parasite or virus in culture; conditions: Human immunodeficiency virus 1, NL43; WT, MAGIC-5 cells, Table S1; read-out: EC50
# Method: as §2
SMILES,EC50 [1] [nM],EC50 [2] [nM],EC50 (HIV-1 WT) [nM],EC50 (HIV-1 K70G) [nM],Fold increase in EC50 compared to HIV-1 WT (HIV-1 K70G),EC50 (HIV-1 Q151Mc/K70Q) [nM],EC50 (HIV-1 Q151Mc/K70E) [nM],Fold increase in EC50 compared to HIV-1 Q151Mc (HIV-1 Q151Mc/K70E),EC50 (HIV-1 Q151Mc/K70T) [nM],Fold increase in EC50 compared to HIV-1 Q151Mc (HIV-1 Q151Mc/K70T),EC50 (HIV-1 K70Q) [nM],EC50 (HIV-1 K70T) [nM],Fold increase in EC50 compared to HIV-1 WT (HIV-1 K70T),EC50 (HIV-1 Q151Mc) [nM],EC50 (HIV-1 K70R) [nM],Fold increase in EC50 compared to HIV-1 WT (HIV-1 K70R),EC50 (HIV-1 K70N) [nM],Fold increase in EC50 compared to HIV-1 WT (HIV-1 K70N),EC50 (HIV-1 Q151Mc/K70R) [nM],Fold increase in EC50 compared to HIV-1 Q151Mc (HIV-1 Q151Mc/K70R),also measured
"O=c1[nH]cnc2c1ncn2[C@H]1CC[C@@H](CO)O1 [ddI, didanosine]",> 100000,29300 ± 3060,2400 ± 260,16000 ± 1500,(6.7) fold,108000 ± 2500,30000 ± 1700,(0.7) fold,13000 ± 1500,(0.3) fold,12000 ± 1700,8900 ± 310,(3.7) fold,45000 ± 1000,3300 ± 290,(1.4) fold,3700 ± 320,(1.5) fold,53000 ± 3100,(1.2) fold,EC50 (HIV-1 K70E): 13000 ± 3500 nM; Fold increase in EC50 compared to HIV-1 WT (HIV-1 K70E): (5.4) fold; EC50 (HIV-1 Q151Mc/K70G): 59000 ± 5000 nM; Fold increase in EC50 compared to HIV-1 Q151Mc (HIV-1 Q151Mc/K70G): (1.3) fold; EC50 (HIV-1 Q151Mc/K70N): 109000 ± 4400 nM; Fold increase in EC50 compared to HIV-1 Q151Mc (HIV-1 Q151Mc/K70N): (2.4) fold; EC50 (HIV-1 NL4-3 strain (WT)): 2500 ± 350 nM
"CC(C)OC(=O)OCOP(=O)(CO[C@H](C)Cn1cnc2c(N)ncnc21)OCOC(=O)OC(C)C [TFV-DF, tenofovir disoproxil fumarate]",120 ± 20,40 ± 10,20 ± 4,20 ± 3,(1) fold,200 ± 10,30 ± 1,(0.8) fold,50 ± 1,(1.3) fold,30 ± 3,20 ± 3,(1) fold,40 ± 3,20 ± 2,(1) fold,20 ± 3,(1) fold,30 ± 2,(0.8) fold,Resistance (fold less susceptible than WT HIV-1) (HIV-1 Q151Mc/K70Q; K70Q/Q151Mc vs WT HIV-1): 10 fold; EC50 (HIV-1 K70E): 20 ± 3 nM; Fold increase in EC50 compared to HIV-1 WT (HIV-1 K70E): (1) fold; EC50 (HIV-1 Q151Mc/K70G): 40 ± 2 nM; Fold increase in EC50 compared to HIV-1 Q151Mc (HIV-1 Q151Mc/K70G): (1) fold; EC50 (HIV-1 Q151Mc/K70N): 60 ± 4 nM; Fold increase in EC50 compared to HIV-1 Q151Mc (HIV-1 Q151Mc/K70N): (1.5) fold; EC50 (HIV-1 NL4-3 strain (WT)): 20 ± 3 nM
